From PubChem BioAssay (NCI)
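96-well plates; 48 h exposure; 5 concentrations. Endpoints by linear interpolation between flanking doses. Not reached: highest tested concentration assigned. GI50 marks 50% less growth. At the TGI there is no net growth.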

How the values were obtained:
Experiment in all cases: NCI tumour cell line growth inhibition, 48 h
[1] = test system: HS 578T breast
[2] = test system: MDA-MB-231 breast
[3] = test system: DMS 114 small cell lung
[4] = test system: KM20L2 colon
[5] = test system: M19-MEL melanoma
[6] = test system: HOP-18 NSCLC
[7] = test system: DLD-1 colon
[8] = test system: SN12K1 renal
[9] = test system: XF 498 CNS
[10] = test system: A498 renal
[11] = test system: P388 leukemia
[12] = test system: SR leukemia
[13] = test system: M14 melanoma
[14] = test system: BT-549 breast

`CN1CCN(Cn2nc(-c3cc(F)c(Cl)cc3Cl)oc2=S)CC1` gave a GI50 [1] of 28.5 µM, a TGI [1] of 86.8 µM and a GI50 [2] of 17.8 µM. The TGI [2] was 62.5 µM.
With `COc1cccc2c1C(=O)c1c(O)c3c(c(O)c1C2=O)CC(O)(C(C)=O)CC3O` (stereo unspecified) the TGI [3] was 24.1 µM, the TGI [4] was 48.2 µM and the TGI [5] was 15.7 µM. The TGI [6] was 41.5 µM, the TGI [7] was 40.9 µM and the TGI [8] was 10.5 µM. For the same compound, the TGI [9] was 1.31 µM, the TGI [10] was 17.2 µM and the TGI [11] was 9.69 µM.
In the case of `O=c1[nH]c(-c2ccc(Cl)cc2)cc2ccsc12`, the TGI [12] is reported as 12.9 µM, the TGI [13] is reported as greater than 100 µM and the TGI [14] is reported as greater than 100 µM.
